Data published in patent US6833456B2, “Indolyl-urea derivatives of thienopyridines useful as antiangiogenic agents, and methods for their use” (Agouron Pharmaceuticals, Inc., priority 2002, dated 2004).

Assays:
[1] = tested on: human umbilical vein endothelial cells (HUVEC); assay: HUVEC+VEGF proliferation assay; type: cell-based; conditions: VEGF 6 ng/mL, MTT
Method in brief: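 Proliferation driven by VEGF (final 6 ng/mL) was quantified by MTT reduction (A595) 72 h after stimulation. Passage 3-4 HUVEC were starved for 24 h in 1% FBS F12K and given test agent 1 h before VEGF, with DMSO at 0.1% final.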

[2] = molecular target: T1, PDGFRβ (Homo sapiens, UniProt P09619); assay: PAE-PDGFRβ phosphorylation in PAE-PDGFRB cells assay; type: cell-based; conditions: PAE cells overexpressing human PDGFRβ, PDGF-BB stimulated; read-out: PAE PDGFR autophos IC50
T1 construct: expressed in transfected cells; host or cells: porcine aorta endothelial (PAE) cells
T1 sequence (P09619 33-1106): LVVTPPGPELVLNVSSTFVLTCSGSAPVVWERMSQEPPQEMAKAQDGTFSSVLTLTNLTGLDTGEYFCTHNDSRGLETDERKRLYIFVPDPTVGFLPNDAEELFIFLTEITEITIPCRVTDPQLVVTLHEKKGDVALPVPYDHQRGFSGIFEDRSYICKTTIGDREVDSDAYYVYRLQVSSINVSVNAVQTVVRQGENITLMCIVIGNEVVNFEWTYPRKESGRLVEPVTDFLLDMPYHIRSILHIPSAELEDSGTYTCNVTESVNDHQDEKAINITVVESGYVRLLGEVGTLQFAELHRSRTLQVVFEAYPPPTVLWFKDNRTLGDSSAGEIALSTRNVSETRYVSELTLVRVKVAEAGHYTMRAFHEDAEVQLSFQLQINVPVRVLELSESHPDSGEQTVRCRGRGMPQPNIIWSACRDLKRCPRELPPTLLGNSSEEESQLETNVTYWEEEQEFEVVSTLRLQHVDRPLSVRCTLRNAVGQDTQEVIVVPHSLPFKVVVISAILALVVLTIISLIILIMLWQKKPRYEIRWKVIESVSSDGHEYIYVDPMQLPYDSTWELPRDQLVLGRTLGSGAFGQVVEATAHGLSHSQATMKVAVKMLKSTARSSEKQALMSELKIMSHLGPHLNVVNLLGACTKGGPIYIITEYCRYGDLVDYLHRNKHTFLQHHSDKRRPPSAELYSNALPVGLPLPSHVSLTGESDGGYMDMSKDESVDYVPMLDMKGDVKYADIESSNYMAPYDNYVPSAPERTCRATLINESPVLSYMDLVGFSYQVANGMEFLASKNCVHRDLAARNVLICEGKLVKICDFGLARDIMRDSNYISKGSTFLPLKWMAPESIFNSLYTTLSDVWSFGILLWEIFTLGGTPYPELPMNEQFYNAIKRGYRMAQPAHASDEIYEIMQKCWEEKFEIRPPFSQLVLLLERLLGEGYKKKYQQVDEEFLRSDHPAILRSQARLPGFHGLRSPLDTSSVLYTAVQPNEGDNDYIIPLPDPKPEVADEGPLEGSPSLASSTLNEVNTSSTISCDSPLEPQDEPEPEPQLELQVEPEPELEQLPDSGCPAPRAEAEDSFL
Method in brief: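 PAE cells overexpressing human PDGFRβ, serum-starved 16 h (0.1% FBS), compound 1 h at 37° C (0.5% DMSO), then 1 μg/mL PDGF-BB with 2 mM Na3VO4 for 8 min. Receptor captured by anti-PDGFRβ, phosphotyrosine detected by HRP-PY20/TMB at 450 nm; IC50 by four-parameter fit.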

[3] = tested on: HUVEC; assay: bFGF HUVEC proliferation; type: cell-based, human; conditions: bFGF stimulated HUVEC
[4] = molecular target: T2, unphosphorylated VEGF-R2Δ50 (FLVK) (Homo sapiens, UniProt P35968, DEL940-989/E990V); assay: VEGF-R2 coupled spectrophotometric assay, unphosphorylated construct (FLVK); type: biochemical; conditions: for inhibition at 0.05 µM: percent inhibition at 50 nM
T2 construct: VEGF-R2Δ50 contains residues 806-939 and 990-1171; made in house; host or cells: baculovirus/insect cell system
T2 sequence (P35968 with tags, fused parts or gaps DEL940-989/E990V limits assumed): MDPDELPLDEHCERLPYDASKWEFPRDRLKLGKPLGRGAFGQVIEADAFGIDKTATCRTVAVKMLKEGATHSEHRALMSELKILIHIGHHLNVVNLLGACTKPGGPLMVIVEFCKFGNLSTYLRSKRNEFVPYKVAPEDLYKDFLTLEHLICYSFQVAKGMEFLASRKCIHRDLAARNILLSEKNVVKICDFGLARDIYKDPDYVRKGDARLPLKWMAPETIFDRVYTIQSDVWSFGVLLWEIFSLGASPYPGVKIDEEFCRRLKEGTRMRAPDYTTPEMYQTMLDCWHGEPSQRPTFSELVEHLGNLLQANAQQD
Method in brief: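 Continuous coupled assay (PEP, PK, LDH; NADH loss at 340 nm) in 200 mM HEPES pH 7.5 with 3 mM ATP, 20 mM poly(E4Y1), 60 mM MgCl2 plus 2 mM MnCl2, started with 5-40 nM non-autophosphorylated VEGF-R2Δ50. Ki values from activity across compound concentrations, Morrison fit.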

[5] = Mouse PK assay; type: in vivo, B6 female mice; conditions: po
Protocol: The pharmacokinetics (e.g., absorption and elimination) of drugs in mice were analyzed using the following experiment. Test compounds were formulated as a suspension in a 30:70 (PEG 400: acidified H2O) vehicle. This solution was administered orally (p.o.) and intraperitoneally (i.p.) at 50 mg/kg to two distinct groups (n=4) of B6 female mice. Blood samples were collected via an orbital bleed at time points: 0 hour (pre-dose), 0.5 hr, 1.0 hr, 2.0 hr, and 4.0 hr post dose. Plasma was obtained from each sample by centrifugation at 2500 rpm for 5 min. Test compound was extracted from the plasma by an organic protein precipitation method. For each time bleed, 50 μL of plasma was combined with 1.0 mL of acetonitrile, vortexed for 2 min. and then spun at 4000 rpm for 15 min. to precipitate the protein and extract out the test compound. Next, the acetonitrile supernatant (the extract containing test compound) was poured into new test tubes and evaporated on a hot plate (25° C.) under a steam of N2 gas. To each tube containing the dried test compound extract, 125 μL of mobile phase (60:40, 0.025 M NH4H2PO4+2.5 mL/L TEA:acetonitrile) was added. The test compound was resuspended in the mobile phase by vortexing and more protein was removed by centrifugation at 4000 rpm for 5 min. Each sample was poured into an HPLC vial for test compound analysis on an Hewlett Packard 1100 series HPLC with UV detection. From each sample, 95 μL was injected onto a Phenomenex-Prodigy reverse phase C-18, 150×3.2 mm column and eluted with a 45-50% acetonitrile gradient run over 10 min. Test-compound plasma concentrations (μg/mL) were determined by a comparison to standard curve (peak area vs. conc. μg/mL) using known concentrations of test compound extracted from plasma samples in the manner described above. Along with the standards and unknowns, three groups (n=4) of quality controls (0.25 μg/mL, 1.5 μg/mL, and 7.5 μg/mL) were run to insure the consistency of the analysis. […] The quantitated test samples were plotted for visual display using Kaleidagraph software and their pharmacokinetic parameters were determined using WIN NONLIN software.

[6] = molecular target: T3, KDR (VEGFR2) (Homo sapiens, UniProt P35968); assay: KDR (VEGFR2) phosphorylation in PAE-KDR cells assay; type: cell-based; conditions: PAE cells overexpressing human KDR, VEGF stimulated; read-out: PAE KDR autophos IC50
T3 construct: expressed in transfected cells; host or cells: porcine aorta endothelial (PAE) cells
T3 sequence (P35968 20-1356): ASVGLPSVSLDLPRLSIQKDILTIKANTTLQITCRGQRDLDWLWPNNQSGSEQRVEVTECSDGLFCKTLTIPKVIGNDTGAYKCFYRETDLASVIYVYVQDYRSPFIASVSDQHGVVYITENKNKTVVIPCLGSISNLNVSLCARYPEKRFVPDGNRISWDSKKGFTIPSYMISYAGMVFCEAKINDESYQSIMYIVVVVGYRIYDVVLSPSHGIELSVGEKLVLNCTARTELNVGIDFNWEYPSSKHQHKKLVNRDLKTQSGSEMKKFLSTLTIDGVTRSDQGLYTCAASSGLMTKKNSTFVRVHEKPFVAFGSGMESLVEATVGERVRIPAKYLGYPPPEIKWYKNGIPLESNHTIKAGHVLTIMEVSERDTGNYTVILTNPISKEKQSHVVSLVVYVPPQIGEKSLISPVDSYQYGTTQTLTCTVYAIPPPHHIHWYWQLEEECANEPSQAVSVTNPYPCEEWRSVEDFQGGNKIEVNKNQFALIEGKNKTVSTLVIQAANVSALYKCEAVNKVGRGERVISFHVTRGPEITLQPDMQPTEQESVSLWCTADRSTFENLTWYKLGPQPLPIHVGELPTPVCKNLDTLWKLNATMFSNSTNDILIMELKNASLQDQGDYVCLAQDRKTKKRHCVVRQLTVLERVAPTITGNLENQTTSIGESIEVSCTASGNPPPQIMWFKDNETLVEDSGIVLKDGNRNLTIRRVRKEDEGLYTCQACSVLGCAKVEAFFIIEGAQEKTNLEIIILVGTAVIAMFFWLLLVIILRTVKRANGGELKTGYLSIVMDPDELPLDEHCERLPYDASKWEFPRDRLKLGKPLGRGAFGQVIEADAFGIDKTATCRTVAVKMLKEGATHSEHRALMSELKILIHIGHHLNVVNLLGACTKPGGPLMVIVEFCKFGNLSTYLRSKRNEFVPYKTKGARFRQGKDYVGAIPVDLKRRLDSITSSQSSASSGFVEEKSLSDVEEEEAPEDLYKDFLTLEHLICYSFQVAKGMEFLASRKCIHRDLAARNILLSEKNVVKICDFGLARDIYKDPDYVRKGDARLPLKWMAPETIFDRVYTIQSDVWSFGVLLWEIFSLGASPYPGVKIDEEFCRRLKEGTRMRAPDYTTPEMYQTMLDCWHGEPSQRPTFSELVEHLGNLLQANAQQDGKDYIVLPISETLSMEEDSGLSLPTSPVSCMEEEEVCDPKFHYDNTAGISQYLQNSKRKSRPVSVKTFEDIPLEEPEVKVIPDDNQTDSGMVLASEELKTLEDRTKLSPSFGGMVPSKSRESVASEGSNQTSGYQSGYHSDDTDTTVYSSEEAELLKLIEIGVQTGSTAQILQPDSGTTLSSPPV
Protocol: This assay determines the ability of a test compound to inhibit the autophosphorylation of KDR in porcine aorta endothelial (PAE)-KDR cells. PAE cells that overexpress human KDR were used in this assay. The cells were cultured in Ham's F12 media supplemented with 10% fetal bovine serum (FBS) and 400 ug/mL G418. Thirty thousands cells were seeded into each well of a 96-well plate in 75 μL of growth media and allowed to attach for 6 hours at 37° C. Cells were then exposed to the starvation media (Ham's F12 media supplemented with 0.1% FBS) for 16 hours. After the starvation period was over, 10 μL of test agent in 5% DMSO in starvation media were added to the test wells and 10 μL of the vehicle (5% DMSO in starvation media) were added into the control wells. The final DMSO concentration in each well was 0.5%. Plates were incubated at 37° C. for 1 hour and the cells were then stimulated with 500 ng/ml VEGF (commercially available from R & D System) in the presence of 2 mM Na3VO4 for 8 minutes. The cells were washed once with 1 mm Na3VO4 in HBSS and lysed by adding 50 μL per well of lysis buffer. One hundred μL of dilution buffer were then added to each well and the diluted cell lysate was transferred to a 96-well goat ant-rabbit coated plate (commercially available from Pierce) which was pre-coated with Rabbit anti Human Anti-flk-1 C-20 antibody (commercially available from Santa Cruz). The plates were incubated at room temperature for 2 hours and washed seven times with 1% Tween 20 in PBS. HRP-PY20 (commercially available from Santa Cruz) was diluted and added to the plate for a 30-minute incubation. Plates were then washed again and TMB peroxidase substrate (commercially available from Kirkegaard & Perry) was added for a 10-minute incubation. One hundred μL of 0.09 N H2SO4 was added to each well of the 96-well plates to stop the reaction. Phosphorylation status was assessed by spectrophotometer reading at 450 nm. IC50 values were calculated by curve fitting using a four-parameter analysis.

Molecule	IC50 [2]	Ki [4]	inhibition at 0.05 µM [4]	AUC ([5]; female, B6, mouse, plasma, 50 mg/kg)	Cmax ([5]; female, B6, mouse, plasma, 50 mg/kg, p.o., 50 mg/kg, read-out: Mouse Cmax, po ng-h/mL)	Mouse Cmin, po [5]	IC50 [6]	IC50 ([1]; 72 hours)	IC50 [3]	IC50 ([1]; Homo sapiens, HUVEC, 72 h)	IC50 ([3]; Homo sapiens, HUVEC)
5-[2-(3S-Methoxy-pyrrolidine-1-carbonyl)-thieno[3,2-b]pyridin-7-ylamino]-2-methyl-2,3-dihydro-indole-1-carboxylic acid methylamide [Example 1u]	> 100 nM	–	–	–	–	–	–	> 10 nM	4840 nM	–	–
CNC(=O)n1c(C)cc2cc(Nc3ccnc4cc(C(=O)N5CC[C@H](O)C5)sc34)ccc21 [Example 1i, 5-[2-(3S-Hydroxy-pyrrolidine-1-carbonyl)-thieno[3,2-b]pyridin-7-ylamino]-2-methyl-indole-1-carboxylic acid methylamide]	~1000 nM	0.69 nM	93%	–	–	–	–	–	–	1.03 nM	44.2 nM
C#CCNC(=O)n1c(C)cc2cc(Nc3ccnc4cc(C(=O)N5CC[C@@H](OC)C5)sc34)ccc21 [Example 1p, 5-[2-(3R-Methoxy-pyrrolidine-1-carbonyl)-thieno[3,2-b]pyridin-7-ylamino]-2-methyl-indole-1-carboxylic acid prop-2-ynylamide]	56 nM	0.2 nM	93%	2530 ng·h/mL	1230 ng/mL	34 ng/mL	–	–	–	–	119 nM

Second part, led by results:

IC50 [2]	Ki [4]	inhibition at 0.05 µM [4]	AUC ([5]; female, B6, mouse, plasma, 50 mg/kg)	Cmax ([5]; female, B6, mouse, plasma, 50 mg/kg, p.o., 50 mg/kg, read-out: Mouse Cmax, po ng-h/mL)	Mouse Cmin, po [5]	IC50 [6]	Molecule	IC50 ([1]; 72 hours)	IC50 [3]	IC50 ([1]; Homo sapiens, HUVEC, 72 h)	IC50 ([3]; Homo sapiens, HUVEC)
–	1.19 nM	95%	–	–	–	–	COC[C@@H]1C[C@@H](O)CN1C(=O)c1cc2nccc(Nc3ccc4c(c3)cc(C)n4C(=O)NC3CC3)c2s1 [Example 3h]	–	–	1.94 nM	225 nM
76.3 nM	0.505 nM	88%	–	–	–	–	CNC(=O)n1c(C)cc2cc(Oc3ccnc4cc(C(=O)N(C)CCO)sc34)ccc21 [Example 3n, 7-(2-Methyl-1-methylcarbamoyl-1H-indol-5-yloxy)-thieno[3,2-b]pyridine-2-carboxylic acid (2-hydroxy-ethyl)-methyl-amide]	–	–	0.267 nM	87 nM
212 nM	0.98 nM	81%	–	–	–	–	CNC(=O)n1c(C)cc2cc(Oc3ccnc4cc(C(=O)N5CC(F)(F)C[C@H]5CO)sc34)ccc21 [Example 3p, 5-[2-(4,4-Difluoro-2-hydroxymethyl-pyrrolidine-1-carbonyl)-thieno[3,2-b]pyridin-7-yloxy]-2-methyl-indole-1-carboxylic acid methyl-amide]	–	–	0.33 nM	227 nM
–	0.868 nM	95%	–	–	–	–	CO[C@H]1CN(C(=O)c2cc3nccc(Oc4ccc5c(c4)cc(C)n5C(=O)NCCO)c3s2)CC1F (stereo partly drawn) [Example 8k, 5-[(2-{[(4S)-3-Fluoro-4-methoxypyrrolidin-1-yl]carbonyl}thieno[3,2b]pyridin-7-yl)oxy]-N-(2-hydroxyethyl)-2-methyl-1H-indole-1-carboxamide]	–	–	0.32 nM	18 nM
10.2 nM	0.089 nM	97%	–	–	–	–	Cc1cc2cc(Oc3ccnc4cc(C(=O)N5CCC5)sc34)ccc2n1C(=O)NCCCO [Example 8n, 5-[2-(Azetidine-1-carbonyl)-thieno[3,2-b]pyridin-7-yloxy]-2-methyl-indole-1-carboxylic acid (3-hydroxy-propyl)-amide]	–	–	–	58 nM
–	4.47 nM	74%	–	–	–	–	CNC(=O)n1c(C)cc2cc(Oc3ccnc4cc(C(=O)N5CC(O)C5)sc34)ccc21 [Example 8o, 5-[2-(3-Hydroxy-azetidine-1-carbonyl)-thieno[3,2-b]pyridin-7-yloxy]-2-methyl-indole-1-carboxylic acid methylamide]	–	–	1.25 nM	61 nM
60 nM	0.488 nM	97%	–	–	–	0.67 nM	CO[C@H]1CCN(C(=O)c2cc3nccc(Oc4ccc5c(c4)cc(C)n5C(=O)NCCCO)c3s2)C1 [Example 9b, 5-[2-(3S-Methoxy-pyrrolidine-1-carbonyl)-thieno[3,2-b]pyridin-7-yloxy]-2-methyl-indole-1-carboxylic acid (3-hydroxy-propyl)-amide]	–	–	0.33 nM	–
